Source: patent US12336536B2, “Method for controlling herbicide resistant or tolerant weeds” (BASF Agro B.V., priority 2015, dated 2025)

What was measured:
[1] = test system: ryegrass (LOLMU) biotypes; assay: Greenhouse test, control of resistant weed biotypes, post-emergence, ryegrass; format: in vivo, Lolium multiflorum; conditions: post-emergence, scale 0 to 100
Procedure: (§1) The herbicidal activity of herbicide A on resistant weed biotypes was tested in comparison with certain commercial herbicides by the following greenhouse experiments:
(§2) The culture containers used were plastic flowerpots containing loamy sand with approximately 3.0% of humus as the substrate. The seeds of the test plants were sown separately for each species. Six blackgrass (ALOMY) (10-103, 10-170, 09-591, 10-123, 11-215, 11-146) and six ryeg rass (LOLMU) (12-166, 12-143, 12-165, 12-307, 13-304, 13-313) biotypes with varying degrees of resistance towards a range of modes of action according to the HRAC (Herbicide Resistance Action Committee) classification on mode of action 2010 (see e.g http://www.hracglobal.com/pages/classificationofherbicidesiteofaction.aspx) were tested alongside two non-resistant biotypes (14-116 and 13-243), see Tables 1 and 2 below.
(§3) For the post-emergence treatment, the test plants were first grown to a height of 3 to 15 cm, depending on the plant habit, and only then treated with the active ingredients which had been suspended or emulsified in water. For this purpose, the test plants were either sown directly and grown in the same containers, or they were first grown separately as seedlings and transplanted into the test containers a few days prior to treatment.
(§4) Depending on the species, the plants were kept at 10-25° C. or 20-35° C. The test period extended over 2 to 4 weeks. During this time, the plants were tended, and their response to the individual treatments was evaluated.
(§5) The racemic mixture (±)-2-exo-(2-Methylbenzyloxy)-1-methyl-4-isopropyl-7-oxabicyclo[2.2.1]heptane was used as herbicide A and formulated as emulsifiable concentrates with an active ingredient concentration of 50 g/l, 100 g/l or 750 g/l respectively.
(§6) Flufenacet was used as a commercial concentrated solution formulation having an active ingredient concentration of 500 g/l (Cadou).
(§7) Imazamox was used as a water dispersible granule (70% WG).
(§8) Evaluation of the herbicidal activity was carried out using a scale from 0 to 100. 100 means complete destruction of at least the aerial moieties, and 0 means no damage, or normal course of growth. A good herbicidal activity is given at values of at least 70 and a very good herbicidal activity is given at values of at least 85.

[2] = test system: blackgrass (ALOMY) biotypes; assay: Greenhouse test, control of resistant weed biotypes, post-emergence, blackgrass; format: in vivo, Alopecurus myosuroides; conditions: post-emergence, scale 0 to 100
Procedure: as §1, §2, §3, §4, §5, §6, §7, §8

[3] = BT 12-143, resistant HRAC group A, B, C, E, K, 125 g ai/ha
[4] = BT 12-165, resistant HRAC group A, B, E, K, 125 g ai/ha
[5] = BT 12-166, resistant HRAC group A, B, E, K, 125 g ai/ha
[6] = BT 12-307, resistant HRAC group B, F, K, O, 125 g ai/ha
[7] = BT 13-243, Sensitive standard, 125 g ai/ha
[8] = BT 13-304, resistant HRAC group A, B, E, K, 125 g ai/ha
[9] = BT 13-313, resistant HRAC group A, B, C, E, K, 125 g ai/ha
[10] = BT 09-591, resistant HRAC group A, B, K, 125 g ai/ha
[11] = BT 10-103, resistant HRAC group A, B, K, 125 g ai/ha
[12] = BT 10-123, resistant HRAC group A, B, C, 125 g ai/ha
[13] = BT 10-170, resistant HRAC group A, B, K, 125 g ai/ha
[14] = BT 11-146, resistant HRAC group K, 125 g ai/ha
[15] = BT 11-215, resistant HRAC group A, B, C, E, K, 125 g ai/ha
[16] = BT 14-116, Sensitive standard, 125 g ai/ha

## CC(C)N(C(=O)COc1nnc(C(F)(F)F)s1)c1ccc(F)cc1 [Flufenacet, flufenacet]
[1]; [3]
  Herbicidal activity: 60
[1]; BT 12-143, resistant HRAC group A, B, C, E, K, 250 g ai/ha
  Herbicidal activity: 60
[1]; [4]
  Herbicidal activity: 60
[1]; BT 12-165, resistant HRAC group A, B, E, K, 250 g ai/ha
  Herbicidal activity: 60
[1]; [5]
  Herbicidal activity: 10
[1]; BT 12-166, resistant HRAC group A, B, E, K, 250 g ai/ha
  Herbicidal activity: 60
[1]; [6]
  Herbicidal activity: 15
[1]; BT 12-307, resistant HRAC group B, F, K, O, 250 g ai/ha
  Herbicidal activity: 15
[1]; [7]
  Herbicidal activity: 80
[1]; BT 13-243, Sensitive standard, 250 g ai/ha
  Herbicidal activity: 95
[1]; [8]
  Herbicidal activity: 75
[1]; BT 13-304, resistant HRAC group A, B, E, K, 250 g ai/ha
  Herbicidal activity: 75
[1]; [9]
  Herbicidal activity: 35
[1]; BT 13-313, resistant HRAC group A, B, C, E, K, 250 g ai/ha
  Herbicidal activity: 50
[2]; [10]
  Herbicidal activity: 80
[2]; BT 09-591, resistant HRAC group A, B, K, 250 g ai/ha
  Herbicidal activity: 95
[2]; [11]
  Herbicidal activity: 75
[2]; BT 10-103, resistant HRAC group A, B, K, 250 g ai/ha
  Herbicidal activity: 90
[2]; [12]
  Herbicidal activity: 80
[2]; BT 10-123, resistant HRAC group A, B, C, 250 g ai/ha
  Herbicidal activity: 95
[2]; [13]
  Herbicidal activity: 90
[2]; BT 10-170, resistant HRAC group A, B, K, 250 g ai/ha
  Herbicidal activity: 95
[2]; [14]
  Herbicidal activity: 70
[2]; BT 11-146, resistant HRAC group K, 250 g ai/ha
  Herbicidal activity: 80
[2]; [15]
  Herbicidal activity: 75
[2]; BT 11-215, resistant HRAC group A, B, C, E, K, 250 g ai/ha
  Herbicidal activity: 95
[2]; [16]
  Herbicidal activity: 98
[2]; BT 14-116, Sensitive standard, 250 g ai/ha
  Herbicidal activity: 100

## COCc1cnc(C2=NC(C)(C(C)C)C(=O)N2)c(C(=O)O)c1 (centres unmarked) [Imazamox, imazamox]
[1]; BT 12-143, resistant HRAC group A, B, C, E, K, 62.5 g ai/ha
  Herbicidal activity: 65
[1]; [3]
  Herbicidal activity: 75
[1]; BT 12-165, resistant HRAC group A, B, E, K, 62.5 g ai/ha
  Herbicidal activity: 70
[1]; [4]
  Herbicidal activity: 85
[1]; BT 12-166, resistant HRAC group A, B, E, K, 62.5 g ai/ha
  Herbicidal activity: 85
[1]; [5]
  Herbicidal activity: 98
[1]; BT 12-307, resistant HRAC group B, F, K, O, 62.5 g ai/ha
  Herbicidal activity: 80
[1]; [6]
  Herbicidal activity: 85
[1]; BT 13-243, Sensitive standard, 62.5 g ai/ha
  Herbicidal activity: 90
[1]; [7]
  Herbicidal activity: 85
[1]; BT 13-304, resistant HRAC group A, B, E, K, 62.5 g ai/ha
  Herbicidal activity: 90
[1]; [8]
  Herbicidal activity: 85
[1]; BT 13-313, resistant HRAC group A, B, C, E, K, 62.5 g ai/ha
  Herbicidal activity: 80
[1]; [9]
  Herbicidal activity: 85
[2]; BT 09-591, resistant HRAC group A, B, K, 62.5 g ai/ha
  Herbicidal activity: 20
[2]; [10]
  Herbicidal activity: 50
[2]; BT 10-103, resistant HRAC group A, B, K, 62.5 g ai/ha
  Herbicidal activity: 60
[2]; [11]
  Herbicidal activity: 70
[2]; BT 10-123, resistant HRAC group A, B, C, 62.5 g ai/ha
  Herbicidal activity: 60
[2]; [12]
  Herbicidal activity: 70
[2]; BT 10-170, resistant HRAC group A, B, K, 62.5 g ai/ha
  Herbicidal activity: 80
[2]; [13]
  Herbicidal activity: 95
[2]; BT 11-146, resistant HRAC group K, 62.5 g ai/ha
  Herbicidal activity: 75
[2]; [14]
  Herbicidal activity: 75
[2]; BT 11-215, resistant HRAC group A, B, C, E, K, 62.5 g ai/ha
  Herbicidal activity: 85
[2]; [15]
  Herbicidal activity: 85
[2]; BT 14-116, Sensitive standard, 62.5 g ai/ha
  Herbicidal activity: 95
[2]; [16]
  Herbicidal activity: 95
